Results: patent US20130344026A1, “Dimeric Smac Mimetics” (priority 2009, published 2013)
Like-named read-outs stand apart in the source and are kept apart here. Each block holds one molecule with its values, some of them ahead of it.

System: HCC461
Experiment: cell viability assay in HCC461, compound alone
Assay type: cell-based
[1] = HCC461, Tables 15-18, read-out: IC50 (uM) in cell viability assay in HCC461
[2] = HCC461, HCC461 cells, compound alone, read-out: IC50 (uM) in cell viability assay in HCC461
[3] = HCC461, HCC461, Tables 6-9, read-out: IC50 (μM) in cell viability assay in HCC461
[4] = HCC461, HCC461, Tables 15-18, read-out: IC50 (uM) in cell viability assay in HCC461

Compound: CC[C@H](NC)C(=O)N[C@@H](CC#CC#CC[C@H](NC(=O)[C@H](CC)NC)C(=O)N1CCC[C@H]1C(=O)N[C@@H]1CCCc2ccccc21)C(=O)N1CCC[C@H]1C(=O)N[C@@H]1CCCc2ccccc21 [Compound P2-9]
IC50 [1]: 0.025 µM

Compound: CN[C@@H](C)C(=O)NC(C(=O)N1C[C@@H](NC(=O)c2cccc(C(=O)NCCCC[C@H](NC(=O)[C@H](C)NC)C(=O)NC(C(=O)N3CCCCC3)C(C)(C)C)c2)C[C@H]1C(=O)N[C@@H]1CCCc2ccccc21)C(C)(C)C (stereo partly drawn) [Compound 151]
IC50 [3]: 0.297 µM

Compound: CC[C@H](NC(=O)[C@H](C)NC)C(C)N[C@@H](CNC(=O)c1cccc(C(=O)N[C@H]2C[C@@H](C(=O)N[C@@H]3CCCc4ccccc43)N(C(=O)[C@@H](NC(=O)[C@H](C)NC)C(C)(C)C)C2)c1)C(=O)N[C@H](C)C(C)C (stereo partly drawn) [Compound 137]
IC50 [3]: 6.97 µM

Compound: CN[C@@H](C)C(=O)N[C@H](C(=O)N1CCC[C@H]1C(=O)N[C@H](CNC(=O)C1CCCC(C(=O)NC[C@@H](NC(=O)[C@@H]2CCCN2C(=O)[C@@H](NC(=O)[C@H](C)NC)C(C)(C)C)C2CCCCC2)C1)C1CCCCC1)C(C)(C)C (single isomer, unassigned) [Compound P4-4]
IC50 [1]: 0.004 µM

Compound: CN[C@@H](C)C(=O)N[C@H](C(=O)N1C[C@@H](Oc2cccc(O[C@H]3C[C@@H](C(=O)NC4CCCc5ccccc54)N(C(=O)[C@@H](NC(=O)[C@H](C)NC)C(C)(C)C)C3)c2)C[C@H]1C(=O)NC1CCCc2ccccc21)C(C)(C)C (stereo partly drawn) [Compound P3-25]
IC50 [2]: 0.007 µM

Compound: CN[C@@H](C)C(=O)N[C@H](C(=O)N1CCC[C@H]1Cn1nnnc1S(=O)(=O)c1ccc(C)cc1)[C@@H](C)OCC#CC#CCO[C@H](C)[C@H](NC(=O)[C@H](C)NC)C(=O)N1CCC[C@H]1Cn1nnnc1S(=O)(=O)c1ccc(C)cc1 [Compound P2-22]
IC50 [4]: 0.18 µM

Compound: CN[C@@H](C)C(=O)N[C@H](C(=O)N1CCC[C@H]1C(=O)N[C@H](CNC(=O)C1CCCCC1C(=O)NC[C@@H](NC(=O)[C@@H]1CCCN1C(=O)[C@@H](NC(=O)[C@H](C)NC)C(C)(C)C)C1CCCCC1)C1CCCCC1)C(C)(C)C (single isomer, unassigned) [Compound P4-3]
IC50 [1]: 0.03 µM

Compound: CN[C@@H](C)C(=O)N[C@H](C(=O)N1C[C@@H](NC(=O)c2cccc(C(=O)NCC[C@@H](NC(=O)[C@H](NC(=O)[C@H](N)CO)C(C)C)C(=O)N[C@@H](C)C(C)C)c2)C[C@H]1C(=O)N[C@@H]1CCCc2ccccc21)C(C)(C)C [Compound 139]
IC50 [3]: 0.849 µM

Compound: CN[C@@H](C)C(=O)N[C@H](C(=O)N1CCC[C@H]1C(=O)N[C@H](CNC(=O)c1cccc(C(=O)NC[C@@H](NC(=O)[C@@H]2CCCN2C(=O)[C@@H](NC(=O)[C@H](C)NC)C2CCCCC2)C2CCCCC2)c1)C1CCCCC1)C1CCCCC1 [Compound P4-16]
IC50 [4]: 0.13 µM

Compound: CN[C@@H](C)C(=O)N[C@@H](CC#CC#CC[C@H](NC(=O)[C@H](C)NC)C(=O)N1C[C@@H](NC(C)c2ccccc2)C[C@H]1C(=O)N[C@@H]1CCCc2ccccc21)C(=O)N1C[C@@H](NC(=O)c2ccccc2)C[C@H]1C(=O)N[C@@H]1CCCc2ccccc21 (stereo partly drawn) [Compound P2-10]
IC50 [1]: 0.109 µM

Compound: CN[C@@H](C)C(=O)N[C@@H](C)C(=O)N[C@H]1C[C@@H](C(=O)N[C@@H]2CCCc3ccccc32)N(C(=O)[C@@H](NC(=O)[C@H](C)NC)C(C)(C)C)C1 [Compound 146]
IC50 [3]: > 30 µM

Compound: CN[C@@H](C)C(=O)N[C@H](C(=O)N1C[C@@H](NC(=O)C2CCCC(C(=O)N[C@H]3C[C@@H](C(=O)N[C@H](C)C4CCCCC4)N(C(=O)[C@@H](NC(=O)[C@H](C)NC)C(C)(C)C)C3)C2)C[C@H]1C(=O)N[C@H](C)C1CCCCC1)C(C)(C)C (stereo partly drawn) [Compound P3-46]
IC50 [2]: 0.024 µM

Compound: CN[C@@H](C)C(=O)N[C@@H](CC#CC#CC[C@H](NC(=O)[C@H](C)NC)C(=O)N1CCC[C@H]1C(=O)NC1c2ccccc2-c2ccccc21)C(=O)N1CCC[C@H]1C(=O)NC1c2ccccc2-c2ccccc21 [Compound P2-5]
IC50 [4]: 0.091 µM

Compound: CN[C@@H](C)C(=O)N[C@@H](CCCCNC(=O)c1cccc(C(=O)NCCCC[C@H](NC(=O)[C@H](C)NC)C(=O)N2CCC[C@H]2C(=O)NC(c2ccccc2)c2ccccc2)c1)C(=O)N1CCC[C@H]1C(=O)NC(c1ccccc1)c1ccccc1 [Compound P2-29]
IC50 [4]: 0.324 µM

Compound: CN[C@@H](C)C(=O)N[C@@H](CCNC(=O)c1cc(N)cc(C(=O)NCC[C@H](NC(=O)[C@H](C)NC)C(=O)N2CCC[C@H]2C(=O)N[C@@H]2CCCc3ccccc32)c1)C(=O)N1CCC[C@H]1C(=O)N[C@@H]1CCCc2ccccc21 [Compound P2-27]
IC50 [4]: 0.165 µM

Compound: C#CC[C@H](NC(=O)[C@H](C)NC)C(=O)N1C[C@@H](n2cc(C[C@H](NC(=O)[C@H](C)NC)C(=O)N3C[C@@H](N=[N+]=[N-])C[C@H]3C(=O)N[C@@H]3CCCc4ccccc43)nn2)C[C@H]1C(=O)N[C@@H]1CCCc2ccccc21 [Compound H-2]
IC50 [4]: 0.114 µM

Compound: CN[C@@H](C)C(=O)N[C@@H](CCC(=O)N[C@H]1CC(C(=O)N[C@@H]2CCc3ccccc3C2)N(C(=O)[C@@H](NC(=O)[C@H](C)NC)C(C)(C)C)C1)C(=O)N[C@H](C(=O)N[C@@H](C)C(C)C)C(C)(C)C (stereo partly drawn) [Compound 163]
IC50 (HCC461, Tables 6-9, read-out: IC50 (μM) in cell viability assay in HCC461): > 30 µM

Compound: CN[C@@H](C)C(=O)N[C@@H](CCCCNC(=O)c1cccc(C(=O)NCCCC[C@H](NC(=O)[C@H](C)NC)C(=O)N2CCCC[C@H]2C(=O)N[C@@H]2CCCc3ccccc32)c1)C(=O)N1CCCC[C@H]1C(=O)N[C@@H]1CCCc2ccccc21 [Compound 142]
IC50 [3]: > 30 µM

Compound: CN[C@@H](C)C(=O)N[C@H](C(=O)N1C[C@@H](n2cc(-c3cccc(-c4cn([C@H]5C[C@@H](C(=O)N[C@H](C)c6ccccc6)N(C(=O)[C@@H](NC(=O)[C@H](C)NC)C(C)(C)C)C5)nn4)c3)nn2)C[C@H]1C(=O)N[C@H](C)c1ccccc1)C(C)(C)C [Compound P3-88]
IC50 [2]: 0.033 µM

Compound: CN[C@@H](C)C(=O)N[C@@H](CCCCCC[C@H](NC(=O)[C@H](C)NC)C(=O)N1CCC[C@H]1C(=O)NC1CCCC2CCCCC21)C(=O)N1CCC[C@H]1C(=O)NC1CCCC2CCCCC21 (stereo partly drawn) [Compound P2-23]
IC50 [4]: 0.055 µM

Compound: CN[C@@H](C)C(=O)N[C@H](C(=O)N1CCC[C@H]1C(=O)NC1c2ccccc2-c2ccccc21)[C@@H](C)OCC#CC#CCO[C@H](C)[C@H](NC(=O)[C@H](C)NC)C(=O)N1CCC[C@H]1C(=O)NC1c2ccccc2-c2ccccc21 [Compound P2-15]
IC50 [4]: 0.07 µM

Compound: CN[C@@H](C)C(=O)N[C@@H](CCCCNC(=O)c1cc(N)cc(C(=O)NCCCC[C@H](NC(=O)[C@H](C)NC)C(=O)N2CCC[C@H]2C(=O)N[C@@H]2CCCc3ccccc32)c1)C(=O)N1CCC[C@H]1C(=O)N[C@@H]1CCCc2ccccc21 [Compound P2-24]
IC50 [4]: 0.121 µM

Further lines, results first:

IC50 [2]: 0.035 µM
Compound: CN[C@@H](C)C(=O)N[C@H](C(=O)N1C[C@@H](NC(=O)c2cc(N)cc(C(=O)N[C@H]3C[C@@H](C(=O)NCc4ccc(F)cc4)N(C(=O)[C@@H](NC(=O)[C@H](C)NC)C(C)(C)C)C3)c2)C[C@H]1C(=O)NCc1ccc(F)cc1)C(C)(C)C [Compound P3-71]

IC50 [2]: 0.008 µM
Compound: CN[C@@H](C)C(=O)N[C@H](C(=O)N1C[C@@H](NC(=O)Cc2ccc(CC(=O)N[C@H]3C[C@@H](C(=O)N[C@@H]4CCCc5ccccc54)N(C(=O)[C@@H](NC(=O)[C@H](C)NC)C(C)(C)C)C3)cc2)C[C@H]1C(=O)N[C@@H]1CCCc2ccccc21)C(C)(C)C [Compound P3-18]

IC50 [2]: 0.017 µM
Compound: CN[C@@H](C)C(=O)N[C@H](C(=O)N1C[C@@H](NC(=O)CC(C)(C)CC(=O)N[C@H]2C[C@@H](C(=O)N[C@@H]3CCCc4ccccc43)N(C(=O)[C@@H](NC(=O)[C@H](C)NC)C(C)(C)C)C2)C[C@H]1C(=O)N[C@@H]1CCCc2ccccc21)C(C)(C)C [Compound P3-33]

IC50 [2]: 0.063 µM
Compound: CN[C@@H](C)C(=O)N[C@H](C(=O)N1C[C@@H](NC(=O)c2cccc(C(=O)N[C@H]3C[C@@H](C(=O)N[C@H](C)c4ccccc4)N(C(=O)[C@@H](NC(=O)[C@H](C)NC)C(C)(C)C)C3)c2)C[C@H]1C(=O)N[C@H](C)c1ccccc1)C(C)(C)C [Compound P3-50]

IC50 [2]: 0.075 µM
Compound: CN[C@@H](C)C(=O)N[C@H](C(=O)N1C[C@@H](NC(=O)c2cc(OC)cc(C(=O)N[C@H]3C[C@@H](C(=O)N[C@H](C)c4ccccc4)N(C(=O)[C@@H](NC(=O)[C@H](C)NC)C(C)(C)C)C3)c2)C[C@H]1C(=O)N[C@H](C)c1ccccc1)C(C)(C)C [Compound P3-73]

IC50 [3]: 0.083 µM
Compound: CCC[C@H](NC(=O)[C@H](C)NC)C(=O)N1C[C@@H](NC(=O)c2cccc(C(=O)N[C@H]3C[C@@H](C(=O)N[C@@H]4CCCc5ccccc54)N(C(=O)[C@@H](NC(=O)[C@H](C)NC)C(C)(C)C)C3)c2)C[C@H]1C(=O)NC(C)(C)C [Compound 156]

IC50 [2]: 0.006 µM
Compound: CN[C@@H](C)C(=O)N[C@H](C(=O)N1C[C@@H](NC(=O)C/C=C/CC(=O)N[C@H]2C[C@@H](C(=O)N[C@@H]3CCCc4ccccc43)N(C(=O)[C@@H](NC(=O)[C@H](C)NC)C(C)(C)C)C2)C[C@H]1C(=O)N[C@@H]1CCCc2ccccc21)C(C)(C)C [Compound P3-32]

IC50 [2]: 0.028 µM
Compound: CN[C@@H](C)C(=O)N[C@H](C(=O)N1C[C@@H](n2cc(CCCc3cn([C@H]4C[C@@H](C(=O)N[C@H](C)c5ccccc5)N(C(=O)[C@@H](NC(=O)[C@H](C)NC)C(C)(C)C)C4)nn3)nn2)C[C@H]1C(=O)N[C@H](C)c1ccccc1)C(C)(C)C [Compound P3-87]

IC50 [2]: 0.04 µM
Compound: CN[C@@H](C)C(=O)N[C@H](C(=O)N1C[C@@H](NC(=O)c2cc(N)cc(C(=O)N[C@H]3C[C@@H](C(=O)N[C@H](C)C4CCCCC4)N(C(=O)[C@@H](NC(=O)[C@H](C)NC)C(C)(C)C)C3)c2)C[C@H]1C(=O)N[C@H](C)C1CCCCC1)C(C)(C)C [Compound P3-44]

IC50 [2]: 0.02 µM
Compound: CN[C@@H](C)C(=O)N[C@H](C(=O)N1C[C@@H](NC(=O)c2ccc(C(=O)N[C@H]3C[C@@H](C(=O)NC4c5ccccc5-c5ccccc54)N(C(=O)[C@@H](NC(=O)[C@H](C)NC)C(C)(C)C)C3)cc2)C[C@H]1C(=O)NC1c2ccccc2-c2ccccc21)C(C)(C)C [Compound P3-2]

IC50 [2]: 0.028 µM
Compound: CN[C@@H](C)C(=O)N[C@H](C(=O)N1C[C@@H](NC(=O)c2cnc(C(=O)N[C@H]3C[C@@H](C(=O)N[C@@H]4CCCc5ccccc54)N(C(=O)[C@@H](NC(=O)[C@H](C)NC)C(C)(C)C)C3)cn2)C[C@H]1C(=O)N[C@@H]1CCCc2ccccc21)C(C)(C)C [Compound P3-13]
